# Test results reported in publication PMC6226504, “Ca^2+ efflux via plasma membrane Ca^2+-ATPase mediates chemotaxis in ascidian sperm” (Scientific Reports, 2018).
# Molecular target: T1, plasma membrane Ca2+-ATPase (PMCA), Atp2b-var.b-mut3 (Ciona intestinalis, UniProt A0A3G9HPC9, R951A/H956A/H962A)
# T1 construct: Atp2b-var.b-mut3, recombinant, in Sf9 cell membrane fraction
# Assay: quartz crystal microbalance (QCM), mutant compared with wild-type membranes
# Assay type: binding
# T1 sequence (A0A3G9HPC9 1-1165 R951A/H956A/H962A): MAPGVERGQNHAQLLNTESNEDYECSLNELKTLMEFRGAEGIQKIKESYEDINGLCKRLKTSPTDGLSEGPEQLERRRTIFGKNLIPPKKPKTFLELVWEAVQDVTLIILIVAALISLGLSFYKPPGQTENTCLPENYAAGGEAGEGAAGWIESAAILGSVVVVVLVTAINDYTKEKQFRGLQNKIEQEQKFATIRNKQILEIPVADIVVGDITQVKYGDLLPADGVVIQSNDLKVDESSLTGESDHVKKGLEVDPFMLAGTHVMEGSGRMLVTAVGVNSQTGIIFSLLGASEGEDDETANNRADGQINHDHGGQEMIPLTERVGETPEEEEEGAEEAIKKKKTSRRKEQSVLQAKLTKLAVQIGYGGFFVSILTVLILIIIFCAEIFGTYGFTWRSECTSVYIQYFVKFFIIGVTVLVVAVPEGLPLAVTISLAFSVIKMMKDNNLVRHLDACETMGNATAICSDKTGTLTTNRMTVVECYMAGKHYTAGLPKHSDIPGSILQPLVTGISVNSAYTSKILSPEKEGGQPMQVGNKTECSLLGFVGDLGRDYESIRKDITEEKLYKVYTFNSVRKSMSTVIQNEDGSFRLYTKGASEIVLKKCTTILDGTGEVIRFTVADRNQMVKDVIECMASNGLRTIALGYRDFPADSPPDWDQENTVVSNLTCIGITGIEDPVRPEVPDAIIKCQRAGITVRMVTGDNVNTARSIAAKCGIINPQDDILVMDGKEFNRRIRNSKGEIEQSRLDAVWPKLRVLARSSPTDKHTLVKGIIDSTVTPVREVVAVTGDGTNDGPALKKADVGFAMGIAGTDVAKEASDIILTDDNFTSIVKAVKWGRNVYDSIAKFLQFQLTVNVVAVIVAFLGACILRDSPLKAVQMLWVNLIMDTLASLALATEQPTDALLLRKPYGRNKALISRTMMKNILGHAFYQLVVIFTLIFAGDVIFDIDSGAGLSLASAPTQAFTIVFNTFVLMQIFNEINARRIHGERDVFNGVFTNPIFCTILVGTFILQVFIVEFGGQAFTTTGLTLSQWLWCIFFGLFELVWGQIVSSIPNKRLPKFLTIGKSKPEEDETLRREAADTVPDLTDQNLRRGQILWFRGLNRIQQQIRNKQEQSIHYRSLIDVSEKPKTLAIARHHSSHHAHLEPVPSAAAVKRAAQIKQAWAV
structure (smiles),measurement,value
C[C@@H](CCC[C@@H](C)[C@H]1CC[C@H]2[C@@H]3[C@H](O)C[C@H]4[C@@H](O)[C@H](OS(=O)(=O)O)CC[C@]4(C)[C@H]3CC[C@]12C)COS(=O)(=O)O [SAAF],"quartz crystal microbalance (QCM), mutant compared with wild-type membranes",Atp2b-var.b-mut3 showed the same interaction compared to the wild-type
